Several values for one entry are separate records, joined by “and”; a condition that tells them apart may be missing. Equal values may be shown once. Inconclusive results and toxic doses are left out.
Tested on: BDF1 mice, B16 melanoma ip, median survival T/C
Assay: NCI In Vivo Anticancer Drug Screen. Data for tumor model B16 Melanoma (intraperitoneal) in B6D2F1 (BDF1) mice
Settings: endpoint: median survival time, higher = longer survival
Method in brief: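 The ratio T/C compares compound-treated mice with vehicle-treated controls, using survival or tumor size as the endpoint in a transplantable tumor model.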

[1] = dose: 12.5 mg/kg/injection, schedule: Q01DX009 (ip), vehicle: water
[2] = dose: 25.0 mg/kg/injection, schedule: Q01DX009 (ip), vehicle: saline with Tween-80
[3] = dose: 50.0 mg/kg/injection, schedule: Q01DX009 (ip), vehicle: water
[4] = dose: 100.0 mg/kg/injection, schedule: Q01DX009 (ip), vehicle: saline with Tween-80

`O=P1(N(CCCl)CCCl)NCCCO1` (stereo unspecified) was tested, and the T/C (dose: 2.5 mg/kg/injection, schedule: Q01DX009 (ip), vehicle: saline) was 102 % of control, the T/C (dose: 5.0 mg/kg/injection, schedule: Q01DX009 (ip), vehicle: saline) was 100 % of control and the T/C (dose: 6.25 mg/kg/injection, schedule: Q01DX017 (ip), vehicle: saline) was 110 % of control. For the same molecule, the T/C (dose: 6.25 mg/kg/injection, schedule: Q02DX009 (ip), vehicle: saline) was 107 % of control and 108 % of control, the T/C (dose: 10.0 mg/kg/injection, schedule: Q01DX005 (ip), vehicle: water) was 100 % of control and the T/C (dose: 10.0 mg/kg/injection, schedule: Q01DX009 (ip), vehicle: saline) was 102 % of control. The T/C (dose: 10.0 mg/kg/injection, schedule: Q01DX009 (ip), vehicle: water) was 111 % of control, the T/C (dose: 10.0 mg/kg/injection, schedule: Q04DX003 (ip), vehicle: saline) was 114 % of control and the T/C (dose: 12.0 mg/kg/injection, schedule: Q01DX009 (ip), vehicle: saline) was 105 % of control. For the same molecule, the T/C [1] was 104 % of control, the T/C (dose: 12.5 mg/kg/injection, schedule: Q02DX009 (ip), vehicle: saline) was 107 % of control and the T/C (dose: 15.0 mg/kg/injection, schedule: Q04DX003 (ip), vehicle: saline) was 107 % of control. The T/C (dose: 20.0 mg/kg/injection, schedule: Q01DX005 (ip), vehicle: water) was 111 % of control, the T/C (dose: 20.0 mg/kg/injection, schedule: Q01DX009 (ip), vehicle: saline) was 112 % of control and the T/C (dose: 20.0 mg/kg/injection, schedule: Q04DX003 (ip), vehicle: saline) was 120 % of control. For the same molecule, the T/C (dose: 25.0 mg/kg/injection, schedule: Q01DX001 (ip), vehicle: saline) was 103 % of control, the T/C (dose: 25.0 mg/kg/injection, schedule: Q01DX009 (ip), vehicle: Klucel (hydroxypropylcellulose) (HPC)) was 107 % of control and the T/C [2] was 112 % of control. The T/C (dose: 25.0 mg/kg/injection, schedule: Q01DX017 (ip), vehicle: saline) was 150 % of control, the T/C (dose: 25.0 mg/kg/injection, schedule: Q02DX009 (ip), vehicle: saline) was 114 % of control and 122 % of control and 123 % of control and the T/C (dose: 25.0 mg/kg/injection, schedule: Q04DX003 (ip), vehicle: saline) was 119 % of control and 122 % of control. The T/C (dose: 25.0 mg/kg/injection, schedule: Q08DX002 (ip), vehicle: saline) was 117 % of control, the T/C (dose: 30.0 mg/kg/injection, schedule: Q01DX009 (ip), vehicle: water) was 161 % of control and the T/C (dose: 30.0 mg/kg/injection, schedule: Q04DX003 (ip), vehicle: saline) was 114 % of control. The T/C (dose: 38.9 mg/kg/injection, schedule: Q08DX002 (ip), vehicle: saline) was 116 % of control, the T/C (dose: 40.0 mg/kg/injection, schedule: Q01DX005 (ip), vehicle: water) was 122 % of control and the T/C (dose: 40.0 mg/kg/injection, schedule: Q01DX009 (ip), vehicle: water) was 172 % of control. For the same molecule, the T/C (dose: 40.0 mg/kg/injection, schedule: Q04DX003 (ip), vehicle: saline) was 124 % of control, the T/C (dose: 41.5 mg/kg/injection, schedule: Q04DX003 (ip), vehicle: saline) was 120 % of control and the T/C [3] was 159 % of control and 180 % of control. For the same molecule, the T/C (dose: 50.0 mg/kg/injection, schedule: Q01DX017 (ip), vehicle: saline) was 110 % of control, the T/C (dose: 50.0 mg/kg/injection, schedule: Q04DX003 (ip), vehicle: saline) was 124 % of control and the T/C (dose: 50.0 mg/kg/injection, schedule: Q04DX005 (ip), vehicle: saline) was 162 % of control. The T/C (dose: 60.0 mg/kg/injection, schedule: Q01DX005 (ip), vehicle: water) was 169 % of control, the T/C (dose: 72.0 mg/kg/injection, schedule: Q01DX001 (ip), vehicle: saline) was 110 % of control and the T/C (dose: 75.0 mg/kg/injection, schedule: Q01DX001 (ip), vehicle: Klucel (hydroxypropylcellulose) (HPC)) was 156 % of control. The T/C (dose: 80.0 mg/kg/injection, schedule: Q04DX003 (ip), vehicle: saline) was 159 % of control, the T/C (dose: 93.3 mg/kg/injection, schedule: Q04DX003 (ip), vehicle: saline) was 169 % of control and the T/C (dose: 100.0 mg/kg/injection, schedule: Q01DX009 (ip), vehicle: Klucel (hydroxypropylcellulose) (HPC)) was 117 % of control. For the same molecule, the T/C [4] was 103 % of control and 117 % of control, the T/C (dose: 100.0 mg/kg/injection, schedule: Q02DX009 (ip), vehicle: saline) was 91 % of control and 112 % of control and the T/C (dose: 100.0 mg/kg/injection, schedule: Q04DX005 (ip), vehicle: saline) was 105 % of control. For the same molecule, the T/C (dose: 100.0 mg/kg/injection, schedule: Q08DX003 (ip), vehicle: saline) was 166 % of control, the T/C (dose: 108.0 mg/kg/injection, schedule: Q08DX002 (ip), vehicle: saline) was 161 % of control and the T/C (dose: 120.0 mg/kg/injection, schedule: Q01DX001 (ip), vehicle: saline) was 124 % of control. The T/C (dose: 120.0 mg/kg/injection, schedule: Q04DX003 (ip), vehicle: saline) was 163 % of control, the T/C (dose: 140.0 mg/kg/injection, schedule: Q04DX003 (ip), vehicle: saline) was 169 % of control and the T/C (dose: 160.0 mg/kg/injection, schedule: Q04DX003 (ip), vehicle: saline) was 191 % of control. For the same molecule, the T/C (dose: 180.0 mg/kg/injection, schedule: Q08DX002 (ip), vehicle: saline) was 192 % of control, the T/C (dose: 200.0 mg/kg/injection, schedule: Q01DX001 (ip), vehicle: water) was 121 % of control and the T/C (dose: 200.0 mg/kg/injection, schedule: Q04DX003 (ip), vehicle: saline) was 111 % of control. For the same molecule, the T/C (dose: 210.0 mg/kg/injection, schedule: Q04DX003 (ip), vehicle: saline) was 205 % of control, the T/C (dose: 300.0 mg/kg/injection, schedule: Q01DX001 (ip), vehicle: Klucel (hydroxypropylcellulose) (HPC)) was 100 % of control and the T/C (dose: 300.0 mg/kg/injection, schedule: Q08DX002 (ip), vehicle: saline) was 117 % of control and 220 % of control and 226 % of control. For the same molecule, the T/C (dose: 333.0 mg/kg/injection, schedule: Q01DX001 (ip), vehicle: saline) was 155 % of control.
`CN(CCO)C1=C(N2CC2)C(=O)C(N(C)CCO)=C(N2CC2)C1=O` was tested, and the T/C (dose: 100.0 micrograms/kg/injection, schedule: Q01DX009 (ip), vehicle: saline) was 111 % of control and the T/C (dose: 200.0 micrograms/kg/injection, schedule: Q01DX009 (ip), vehicle: saline) was 118 % of control.
In the case of `CCCCCCCCCCCCCCCC(=O)O[C@@]12C[C@@H](C)[C@@]3(O)[C@@H](C=C(CO)C[C@]4(O)C(=O)C(C)=C[C@@H]34)[C@@H]1C2(C)C`, the T/C (dose: 0.03 mg/kg/injection, schedule: Q01DX009 (ip), vehicle: saline + Tween-80 + alcohol) is reported as 103 % of control, the T/C (dose: 0.03 mg/kg/injection, schedule: Q01DX009 (ip), vehicle: saline) is reported as 94 % of control and the T/C (dose: 0.06 mg/kg/injection, schedule: Q01DX009 (ip), vehicle: saline + Tween-80 + alcohol) is reported as 109 % of control. For the same molecule, the T/C (dose: 0.06 mg/kg/injection, schedule: Q01DX009 (ip), vehicle: saline) was 99 % of control, the T/C (dose: 0.12 mg/kg/injection, schedule: Q01DX009 (ip), vehicle: saline) was 96 % of control and the T/C (dose: 0.13 mg/kg/injection, schedule: Q01DX009 (ip), vehicle: other) was 103 % of control. The T/C (dose: 0.13 mg/kg/injection, schedule: Q01DX009 (ip), vehicle: saline + Tween-80 + alcohol) was 110 % of control, the T/C (dose: 0.25 mg/kg/injection, schedule: Q01DX009 (ip), vehicle: saline) was 92 % of control and the T/C (dose: 0.5 mg/kg/injection, schedule: Q01DX009 (ip), vehicle: saline) was 92 % of control.
In the case of `NC(=S)N/N=C/c1ccc(OC(=O)COc2ccccc2)cn1`, the T/C (dose: 12.5 mg/kg/injection, schedule: Q01DX009 (ip), vehicle: saline with Tween-80) is reported as 101 % of control and 110 % of control, the T/C [2] is reported as 94 % of control and 104 % of control and 119 % of control and the T/C (dose: 50.0 mg/kg/injection, schedule: Q01DX009 (ip), vehicle: saline with Tween-80) is reported as 103 % of control and 106 % of control and 117 % of control. The T/C [4] was 105 % of control, the T/C (dose: 200.0 mg/kg/injection, schedule: Q01DX009 (ip), vehicle: saline with Tween-80) was 105 % of control and the T/C (dose: 400.0 mg/kg/injection, schedule: Q01DX009 (ip), vehicle: saline with Tween-80) was 108 % of control.
`COc1cc2ccc3c[n+](C)ccc3c2cc1OC` was tested, and the T/C [1] was 101 % of control, the T/C (dose: 25.0 mg/kg/injection, schedule: Q01DX009 (ip), vehicle: water) was 106 % of control and the T/C [3] was 95 % of control. The T/C (dose: 100.0 mg/kg/injection, schedule: Q01DX009 (ip), vehicle: water) was 101 % of control.
For `COC(=O)C1=CCCN(C)C1`, the T/C (dose: 3.12 mg/kg/injection, schedule: Q01DX009 (ip), vehicle: saline) was 100 % of control, the T/C (dose: 6.25 mg/kg/injection, schedule: Q01DX009 (ip), vehicle: saline) was 115 % of control and the T/C (dose: 12.5 mg/kg/injection, schedule: Q01DX009 (ip), vehicle: saline) was 100 % of control. The T/C (dose: 25.0 mg/kg/injection, schedule: Q01DX009 (ip), vehicle: saline) was 92 % of control and the T/C (dose: 50.0 mg/kg/injection, schedule: Q01DX009 (ip), vehicle: saline) was 115 % of control.
